# Laboratory results reported in ChEMBL document CHEMBL1649300, “Bacterial strain-to-strain variation in pharmacodynamic index magnitude, a hitherto unconsidered factor in establishing antibiotic clinical breakpoints” (2009).
# Tests used:
# Staphylococcus aureus [1] = assay: Antibacterial activity against Staphylococcus aureus SMH36633 by broth dilution method
# Staphylococcus aureus [2] = assay: Antibacterial activity against Staphylococcus aureus SMH37099 by broth dilution method
# Staphylococcus aureus [3] = assay: Antibacterial activity against Staphylococcus aureus SMH37312 by broth dilution method
# Staphylococcus aureus [4] = assay: Antibacterial activity against Staphylococcus aureus SMH37390 by broth dilution method; assay type: functional
# Staphylococcus aureus [5] = assay: Antibacterial activity against Staphylococcus aureus SMH38004 by broth dilution method; assay type: functional
# Staphylococcus aureus [6] = assay: Antibacterial activity against Staphylococcus aureus SMH37276 by broth dilution method; assay type: functional
# Staphylococcus aureus [7] = assay: Antibacterial activity against Staphylococcus aureus SMH36742 by broth dilution method
# Staphylococcus aureus [8] = assay: Antibacterial activity against Staphylococcus aureus SMH36945 by broth dilution method
structure (smiles),measurement,setting,value
COc1c(N2C[C@@H]3CCCN[C@@H]3C2)c(F)cc2c(=O)c(C(=O)O)cn(C3CC3)c12 [MOXIFLOXACIN],MIC,Staphylococcus aureus [1],0.03 µg/mL
same,MIC,Staphylococcus aureus [2],0.03 µg/mL
same,MIC,Staphylococcus aureus [3],0.03 µg/mL
same,MIC,Staphylococcus aureus [4],0.04 µg/mL
same,MIC,Staphylococcus aureus [5],0.09 µg/mL
same,MIC,Staphylococcus aureus [6],0.7 µg/mL
same,MIC,Staphylococcus aureus [7],1 µg/mL
same,MIC,Staphylococcus aureus [8],2 µg/mL
